Source: patent publication US20250188043A1 (ReproNovo SA, priority 2023, published 2025)
Values after ≈ are worked out from the molar mass of the structure shown. Each block holds one compound with its values, some of them ahead of it.

Legend:
[1] = Chemical stability stress test: bulk solid and suspensions in buffer; format: physicochemical; conditions: for Leflutrozole Peak Area, After: 1 week; for degradation: all suspensions tested
Description: The stress test conditions were bulk crystalline solid at room temperature (RT, about 25° C.) and 80° C. for one week or storage in buffer solutions of different pH (1, 4, and 7.4) at RT or at 80° C. for one week. Additional experiments were performed at 50° C. if degradation by more than 5% was observed during the analogous 80° C. experiment.

[2] = Intrinsic dissolution rate; format: physicochemical; conditions: for Intrinsic DR value: 37° C., 50 rpm, 720 min
Description: The intrinsic dissolution rate is very low for Form A of leflutrozole, even in the presence of sodium dodecyl sulfate (SDS). The rate was determined in 0.1 N hydrochloric acid (HCl) and 0.001 N HCl.

[3] = Dynamic vapor sorption (DVS); format: physicochemical
Description: Crystalline Form A leflutrozole was determined to be non-hygroscopic.

[4] = Stability program: degradation product formation and appearance; format: physicochemical; conditions: for DSC onset after stress / DSC ΔH after stress: Bulk (DSC)
Source text: The mixtures of excipients used for this study are as follows: mixture 1 (maltodextrin, microcrystalline cellulose, sodium carboxymethylcellulose, Aerosil 200, Cutina HR; 64:29:5:0.5:1.5 ratio), mixture 2 (microcrystalline cellulose, spray dried lactose, sodium carboxylmethyl starch, Aerosil 200, magnesium stearate; 20:73.5:5:0.5:1 ratio), and mixture 3 (microcrystalline cellulose, mannitol, crospovidone, magnesium stearate; 15:79.5:4:1.5 ratio). The buffered solutions are aqueous.

Thermodynamic solubility = format: physicochemical; conditions: thermodynamic from solid
[5] = biological target: T1, breast cancer resistance protein (Homo sapiens, UniProt Q9UNQ0); assay: Breast cancer resistance protein inhibition; format: in vitro ADME; conditions: at concentrations above 200 μM
T1 sequence (Q9UNQ0 1-655): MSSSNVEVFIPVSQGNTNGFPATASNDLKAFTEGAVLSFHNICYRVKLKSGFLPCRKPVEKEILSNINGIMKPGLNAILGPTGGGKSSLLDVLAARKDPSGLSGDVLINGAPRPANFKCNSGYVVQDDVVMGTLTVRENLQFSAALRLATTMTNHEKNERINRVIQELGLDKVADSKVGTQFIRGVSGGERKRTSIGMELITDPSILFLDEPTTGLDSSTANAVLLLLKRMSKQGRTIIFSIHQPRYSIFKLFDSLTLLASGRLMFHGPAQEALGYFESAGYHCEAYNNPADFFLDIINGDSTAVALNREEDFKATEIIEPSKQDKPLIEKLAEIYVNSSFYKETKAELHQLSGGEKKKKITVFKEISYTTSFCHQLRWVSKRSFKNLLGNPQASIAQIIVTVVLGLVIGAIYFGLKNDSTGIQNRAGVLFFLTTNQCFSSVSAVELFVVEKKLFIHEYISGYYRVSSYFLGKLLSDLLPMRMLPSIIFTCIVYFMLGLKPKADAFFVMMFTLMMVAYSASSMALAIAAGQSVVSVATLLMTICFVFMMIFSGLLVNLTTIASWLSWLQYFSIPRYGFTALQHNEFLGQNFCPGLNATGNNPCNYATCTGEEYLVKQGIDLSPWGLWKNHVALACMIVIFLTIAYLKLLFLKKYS

CYP2C19 = biological target: T2, CYP2C19 (Homo sapiens, UniProt P33261); assay: CYP inhibition, pooled human liver microsomes, probe substrates; format: in vitro ADME; conditions: up to 100 μM
T2 construct: assessed by pooled human liver microsomes using enzyme selective probe substrates; from tissue; host or cells: pooled human liver microsomes
T2 sequence (P33261 whole entry): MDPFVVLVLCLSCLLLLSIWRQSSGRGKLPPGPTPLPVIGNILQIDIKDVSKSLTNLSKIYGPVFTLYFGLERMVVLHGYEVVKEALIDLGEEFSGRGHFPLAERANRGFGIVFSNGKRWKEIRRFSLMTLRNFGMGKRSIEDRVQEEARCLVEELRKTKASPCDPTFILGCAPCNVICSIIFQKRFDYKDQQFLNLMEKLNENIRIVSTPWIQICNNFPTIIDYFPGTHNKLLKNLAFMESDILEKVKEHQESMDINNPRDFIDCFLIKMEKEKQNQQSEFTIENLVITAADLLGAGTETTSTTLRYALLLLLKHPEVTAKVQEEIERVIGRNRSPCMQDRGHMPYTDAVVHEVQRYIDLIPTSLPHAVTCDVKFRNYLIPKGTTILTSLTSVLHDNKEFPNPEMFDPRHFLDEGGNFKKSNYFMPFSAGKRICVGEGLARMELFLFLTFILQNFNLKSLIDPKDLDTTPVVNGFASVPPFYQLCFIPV

CYP3A4/5 = assay: as above; format: in vitro ADME; conditions: up to 100 μM
[6] = Cellular transport by Caco-2 assay; format: in vitro ADME, humans; conditions: human
Source text: (§1) The ratio of B-A/A-B is 0.43.

Caco-2 cell model = assay: Cellular transport by Caco-2 assay; format: in vitro ADME, humans
Source text: as §1

[7] = 2% (or 5%) solution or suspension, 1 day, room temperature, HPMC Cellulose 4000 0.5%
[8] = Solid-state, 1 week, 50° C., 75% RH, 1% in mixture 1
[9] = Solid-state, 1 week, 50° C., 75% RH, 1% in mixture 2
[10] = Solid-state, 1 week, 50° C., 75% RH, 1% in mixture 3
[11] = Solid-state, 1 week, 50° C., tight container, 1% in mixture 1
[12] = Solid-state, 1 week, 50° C., tight container, 1% in mixture 2
[13] = Solid-state, 1 week, 50° C., tight container, 1% in mixture 3
[14] = Solid-state, 1 week, 80° C., 75% RH
[15] = Solid-state, 1 week, 80° C., 75% RH, Bulk (HPLC)
[16] = Solid-state, 1 week, 80° C., tight container
[17] = Solid-state, 1 week, 80° C., tight container, Bulk (HPLC)
[18] = Xenon light (approx. 1200 kLuxh)
[19] = Xenon light (approx. 1200 kLuxh), Bulk (HPLC)

Leflutrozole Peak Area, After ([1]; Bulk Solid, RT): 99.6% peak area
Leflutrozole Peak Area, After ([1]; Bulk solid, 80° C., listed as Form A of leflutrozole): 99.7 % peak area
Leflutrozole Peak Area, After ([1]; Bulk solid, 80° C., listed as crystalline Form A leflutrozole): 99.7% peak area
Leflutrozole Peak Area, After ([1]; Suspension in buffer, pH 1, 50° C.): 79.8% peak area
Leflutrozole Peak Area, After ([1]; Suspension in buffer, pH 1, 80° C.): 18.5% peak area
Leflutrozole Peak Area, After ([1]; Suspension in buffer, pH 4, 50° C.): 94.3% peak area
Leflutrozole Peak Area, After ([1]; Suspension in buffer, pH 4, 80° C.): 0.6% peak area
Leflutrozole Peak Area, After ([1]; Suspension in buffer, pH 7.4, 50° C.): 95.5% peak area
Leflutrozole Peak Area, After ([1]; Suspension in buffer, pH 7.4, 80° C.): 1.1% peak area
degradation ([1]; 1 week at 50° C.): > 4%
degradation ([1]; 80° C. for 1 week, irrespective of buffer pH): > 80%
Leflutrozole Peak Area, Before ([1]; before stress test): 99.7% peak area
major decomposition product ([1]; sample stored at pH 7.4 and 80° C., LC-MS): compound of Formula (IV)
Intrinsic DR value ([2]; HCl 0.001N + 1% SDS): 0.0167 mg/min/cm^2
Intrinsic DR value ([2]; HCl 0.1N + 1% SDS): 0.0162 mg/min/cm^2
intrinsic dissolution rate (in words) ([2]; even in the presence of sodium dodecyl sulfate): very low
hygroscopicity [3]: non-hygroscopic
maximum water uptake (DVS) ([3]; 25° C., up to 95% relative humidity): < 0.2%
CL (appearance, color) ([4]; 0.1% solution or suspension, 1 week, 80° C., Ethanol): No change
CL (appearance, color) ([4]; 0.1% solution or suspension, 1 week, 80° C., Methanol): No change
CL (appearance, color) ([4]; 0.1% solution or suspension, 1 week, 80° C., Water): No change, suspension formed
CL (appearance, color) ([4]; 0.1% solution or suspension, 1 week, 80° C., pH 1): No change, suspension formed
CL (appearance, color) ([4]; 0.1% solution or suspension, 1 week, 80° C., pH 3): No change, suspension formed
form change on storage ([4]; 1 week at 80° C. and 75% relative humidity): no detectable form change
CL (appearance, color) ([4]; 2% (or 5%) solution or suspension, 1 day, room temperature, 0.5% CMC): suspension formed
CL (appearance, color) [4, 7]: suspension formed
DP (degradation product) [4, 7]: 0.0%
CL (appearance, color) [4, 8]: No change
DP (degradation product) [4, 8]: 0.5%
CL (appearance, color) [4, 9]: No change
DP (degradation product) [4, 9]: 0.1%
CL (appearance, color) [4, 10]: No change
DP (degradation product) [4, 10]: 0.4%
CL (appearance, color) [4, 11]: No change
DP (degradation product) [4, 11]: 0.0%
CL (appearance, color) [4, 12]: No change
DP (degradation product) [4, 12]: 0.0%
CL (appearance, color) [4, 13]: No change
DP (degradation product) [4, 13]: 0.1%
DSC onset after stress [4, 14]: 168 °C onset;
DSC ΔH after stress [4, 14]: ΔH = 110.3 J/g
CL (appearance, color) [4, 15]: No change
DP (degradation product) [4, 15]: 0.0%
DSC onset after stress [4, 16]: 168 °C onset;
DSC ΔH after stress [4, 16]: ΔH = 114 J/g
CL (appearance, color) [4, 17]: No change
DP (degradation product) [4, 17]: 0.0%
DSC onset after stress [4, 18]: 169 °C onset;
DSC ΔH after stress [4, 18]: ΔH = 112.6 J/g
CL (appearance, color) [4, 19]: No change
DP (degradation product) [4, 19]: 0.0%
degradation on exposure to xenon lamp (in words) ([4]; xenon lamp): does not degrade
solubility thermodynamic (Thermodynamic solubility; 0.05 M potassium biphthalate buffer, aqueous buffer, 0.05M buffer pH 3 - Potassium Biphthalate): < 30 µg/mL
solubility thermodynamic (Thermodynamic solubility; 0.05 M potassium chloride buffer, aqueous buffer, 0.05M buffer pH 1 - Potassium Chloride): < 30 µg/mL
solubility thermodynamic (Thermodynamic solubility; 0.05 M potassium phosphate buffer, aqueous buffer, 0.05M buffer pH 6.86 - Potassium Phosphate): < 30 µg/mL
solubility thermodynamic (Thermodynamic solubility; 0.05 M sodium acetate buffer, aqueous buffer, 0.05M buffer pH 4.63 - Sodium Acetate): < 30 µg/mL
solubility thermodynamic (Thermodynamic solubility; 1% Cremophor EL in water, aqueous with cosolvent or surfactant or cyclodextrin): < 30 µg/mL
solubility thermodynamic (Thermodynamic solubility; 1% Tween 80 in water, aqueous with cosolvent or surfactant or cyclodextrin): < 30 µg/mL
solubility thermodynamic (Thermodynamic solubility; 1% sodium dioctyl sulfosuccinate in water, aqueous with cosolvent or surfactant or cyclodextrin): 170 µg/mL (≈ 561 µM)
solubility thermodynamic (Thermodynamic solubility; 1% sodium lauryl sulfate in water, aqueous with cosolvent or surfactant or cyclodextrin): 470 µg/mL (≈ 1550 µM)
solubility thermodynamic (Thermodynamic solubility; 10% Cremophor EL in water, aqueous with cosolvent or surfactant or cyclodextrin): 190 µg/mL (≈ 626 µM)
solubility thermodynamic (Thermodynamic solubility; 10% PEG400 in water, aqueous with cosolvent or surfactant or cyclodextrin): < 30 µg/mL
solubility thermodynamic (Thermodynamic solubility; 10% PG in water, aqueous with cosolvent or surfactant or cyclodextrin): < 30 µg/mL
solubility thermodynamic (Thermodynamic solubility; 10% ethanol in water, aqueous with cosolvent or surfactant or cyclodextrin): < 30 µg/mL
solubility thermodynamic (Thermodynamic solubility; 20% hydroxypropyl β-cyclodextrin in water, aqueous with cosolvent or surfactant or cyclodextrin): 870 µg/mL (≈ 2870 µM)
solubility thermodynamic (Thermodynamic solubility; 20% sulfobutyl ether β-cyclodextrin (Captisol) in water, aqueous with cosolvent or surfactant or cyclodextrin): 1050 µg/mL (≈ 3460 µM)
solubility thermodynamic (Thermodynamic solubility; Cremophor EL, organic solvent or mixture): 280 µg/mL (≈ 923 µM)
solubility thermodynamic (Thermodynamic solubility; FaSSIF): < 30 µg/mL
solubility thermodynamic (Thermodynamic solubility; FeSSIF): < 30 µg/mL
solubility thermodynamic (Thermodynamic solubility; Miglyol, oil or lipid): 720 µg/mL (≈ 2370 µM)
solubility thermodynamic (Thermodynamic solubility; SGF, simulated gastric fluid): < 30 µg/mL
solubility thermodynamic (Thermodynamic solubility; aqueous buffer, 0.05M buffer pH 7.4 - Potassium Phosphate): < 30 µg/mL
solubility thermodynamic (Thermodynamic solubility; aqueous buffer, 0.05M buffer pH 9 - Boric Acid): < 30 µg/mL
solubility thermodynamic (Thermodynamic solubility; aqueous buffer, pH 12 - 0.1N Sodium Hydroxide): < 30 µg/mL
solubility thermodynamic (Thermodynamic solubility; ethanol, organic solvent or mixture): 3840 µg/mL (≈ 12700 µM)
solubility thermodynamic (Thermodynamic solubility; polyethylene glycol 400, organic solvent or mixture): 6230 µg/mL (≈ 20500 µM)
solubility thermodynamic (Thermodynamic solubility; propylene glycol, organic solvent or mixture): 2270 µg/mL (≈ 7480 µM)
solubility thermodynamic (Thermodynamic solubility; water): < 30 µg/mL
Compound: N#Cc1ccc(C(F)(c2ccc(C#N)cc2)n2cncn2)cc1 [Form A leflutrozole, 4-[(4-cyanophenyl)-fluoro-(1,2,4-triazol-1-yl)methyl]benzonitrile]

inhibition of breast cancer resistance protein [5]: not determined to be an inhibitor
impurities formed ([4]; mixtures of 1% leflutrozole with various excipients, 1 week, 50° C. and 75% relative humidity): at most 0.5%
IC50 (CYP2C19): > 50 µM
IC50 (CYP3A4/5): > 50 µM
Papp A→B ([6]; read-out: apparent permeability, apical to basolateral): 54.5 ×10⁻⁶ cm/s
Papp B→A ([6]; read-out: apparent permeability, basolateral to apical): 23.2 ×10⁻⁶ cm/s
apparent permeability (in words) (Caco-2 cell model): very high apparent permeability
Compound: N#Cc1ccc(C(F)(c2ccc(C#N)cc2)n2cncn2)cc1 [leflutrozole, 4-[(4-cyanophenyl)-fluoro-(1,2,4-triazol-1-yl)methyl]benzonitrile]
contribution of efflux transporters such as P-glycoprotein (Caco-2 cell model): no detectable contribution of efflux transporters
